“Also recorded” adds a separate entry of the source.
Legend:
[1] = molecular target: eeAChE (Electrophorus electricus, UniProt O42275); test: eeAChE inhibition, modified Ellman's method; type: biochemical, electric eel
[2] = molecular target: T1, eqBuChE (Equus caballus, UniProt P81908); test: eqBuChE inhibition, modified Ellman's method; type: biochemical, equine
[3] = molecular target: huBuChE (Homo sapiens, UniProt P06276); test: huBuChE inhibition, modified Ellman's method; type: biochemical
[4] = tested on: LPS-induced NO production of mouse microglia cells (BV-2); test: LPS-induced NO production in BV-2 microglia; type: cell-based; conditions: for NO production: 10 μM compound, LPS-induced BV-2 cells; for inhibition at 10 µM: Mus musculus, BV-2, read-out: NO inhibition
[5] = PAMPA-BBB reported values; ref [35],[36]; cited from earlier work
[6] = PAMPA-BBB in vitro blood-brain barrier permeation assay; conditions: for Papp at 10 h, 25 μg/mL: pH 7.4; for CNS (±): PAMPA-BBB classification from Pe
[7] = molecular target: T1, eqBuChE; test: Kinetics of BuChE inhibition; type: biochemical, equine
[8] = tested on: scopolamine-induced cognitive impairment mouse model; test: Morris water maze test in scopolamine-induced cognitive impairment mouse model; type: in vivo, C57BL/6J mice; conditions: scopolamine 5 mg/kg i.p.; for escape latency to the platform: fifth day of training trials; for number of crossing the platform: last day without platform
[9] = Acute toxicity test; conditions: both, ICR, mouse, in vivo, po, 1000 mg/kg
[10] = tested on: ICR mice; test: Acute toxicity test; conditions: ICR mice
[11] = tested on: BV-2 cells; test: BV-2 cell viability; conditions: 10 μM, MTT, 24 h

huBuChE, sequence (P06276 29-602): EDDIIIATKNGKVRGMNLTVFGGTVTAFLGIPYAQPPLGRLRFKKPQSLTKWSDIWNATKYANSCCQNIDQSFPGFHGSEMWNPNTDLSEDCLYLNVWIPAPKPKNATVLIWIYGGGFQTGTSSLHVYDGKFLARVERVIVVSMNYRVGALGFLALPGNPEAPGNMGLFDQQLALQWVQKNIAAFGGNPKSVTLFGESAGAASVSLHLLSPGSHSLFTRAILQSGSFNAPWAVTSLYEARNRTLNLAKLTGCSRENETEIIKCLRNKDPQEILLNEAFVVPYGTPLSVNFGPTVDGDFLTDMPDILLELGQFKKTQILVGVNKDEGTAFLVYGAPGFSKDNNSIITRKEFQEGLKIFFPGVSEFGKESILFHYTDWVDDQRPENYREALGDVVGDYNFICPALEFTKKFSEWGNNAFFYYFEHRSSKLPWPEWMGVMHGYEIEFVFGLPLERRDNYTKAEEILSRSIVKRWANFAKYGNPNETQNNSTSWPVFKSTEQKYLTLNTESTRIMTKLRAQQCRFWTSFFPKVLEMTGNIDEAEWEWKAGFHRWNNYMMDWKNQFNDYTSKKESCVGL
eeAChE, sequence (O42275 24-633): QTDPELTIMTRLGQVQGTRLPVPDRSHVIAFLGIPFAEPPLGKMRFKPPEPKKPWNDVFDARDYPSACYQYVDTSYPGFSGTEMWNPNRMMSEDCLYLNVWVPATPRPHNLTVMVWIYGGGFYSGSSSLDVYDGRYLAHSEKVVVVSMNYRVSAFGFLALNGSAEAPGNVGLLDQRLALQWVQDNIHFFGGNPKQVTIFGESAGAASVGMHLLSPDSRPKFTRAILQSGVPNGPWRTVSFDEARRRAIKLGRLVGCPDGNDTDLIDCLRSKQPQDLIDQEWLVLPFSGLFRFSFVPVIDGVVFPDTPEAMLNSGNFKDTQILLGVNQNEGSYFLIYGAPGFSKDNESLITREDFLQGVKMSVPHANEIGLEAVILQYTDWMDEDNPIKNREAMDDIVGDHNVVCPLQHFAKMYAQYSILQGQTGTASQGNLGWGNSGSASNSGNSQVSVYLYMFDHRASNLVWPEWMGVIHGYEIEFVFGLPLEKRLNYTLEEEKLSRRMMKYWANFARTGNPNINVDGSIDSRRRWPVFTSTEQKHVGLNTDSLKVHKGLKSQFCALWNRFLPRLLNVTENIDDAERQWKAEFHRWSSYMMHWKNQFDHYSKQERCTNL
T1 sequence (P81908 whole entry): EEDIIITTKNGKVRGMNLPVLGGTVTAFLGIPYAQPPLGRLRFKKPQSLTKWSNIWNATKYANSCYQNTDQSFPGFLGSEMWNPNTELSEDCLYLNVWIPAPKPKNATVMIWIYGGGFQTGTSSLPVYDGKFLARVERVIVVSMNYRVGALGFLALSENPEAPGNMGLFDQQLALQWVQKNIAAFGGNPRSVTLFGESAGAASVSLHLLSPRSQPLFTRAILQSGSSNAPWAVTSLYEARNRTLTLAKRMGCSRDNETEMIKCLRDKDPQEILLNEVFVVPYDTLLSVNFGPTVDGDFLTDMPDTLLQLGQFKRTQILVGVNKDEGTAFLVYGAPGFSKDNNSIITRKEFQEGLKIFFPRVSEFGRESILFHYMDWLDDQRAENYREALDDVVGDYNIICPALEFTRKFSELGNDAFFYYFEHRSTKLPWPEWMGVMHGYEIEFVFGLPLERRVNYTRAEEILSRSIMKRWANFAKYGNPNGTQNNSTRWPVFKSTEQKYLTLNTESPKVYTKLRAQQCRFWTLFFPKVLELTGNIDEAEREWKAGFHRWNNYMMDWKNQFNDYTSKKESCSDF

| SMILES | IC50 [1] | IC50 [2] | IC50 [3] | NO production [4] | further results |
| --- | --- | --- | --- | --- | --- |
| Cc1cc(=O)c(OCc2ccccc2)c(CCc2cccc(OC(=O)N3CCCCC3)c2)o1 [Compound 7s, 3–(2-(3-(Benzyloxy)-6-methyl-4-oxo-4H-pyran-2-yl)ethyl)phenyl piperidine-1-carboxylate] | > 20000 nM | 12.3 ± 3.12 nM | 11 ± 1.7 nM | 77.77% |  |
| CN1C(C(=O)Nc2ccccn2)=C(O)c2sccc2S1(=O)=O [Tenoxicam] |  |  |  |  | Pe(ref.) [5]: 1e-07 cm/s; Papp at 10 h, 25 μg/mL ([6]; PAMPA): 0.35 ± 0.16 ×10⁻⁶ cm/s; CNS (±) [6]: CNS - (CNS -: (low BBB permeability), Pe (×10^−6 cm/s) < 2.03) |
| Cc1cc(=O)c(OCc2ccccc2)c(/C=C/c2cccc(OCC(=O)N3CCCCC3)c2)o1 [Compound 7k, (E)-3-(benzyloxy)-6-methyl-2–(3–(2-oxo-2-(piperidin-1-yl)ethoxy)styryl)-4H-pyran-4-one] | > 20000 nM | 1430 ± 131 nM | 486 ± 46.2 nM | 64.59% | inhibition at 10 µM [4]: 35.4% |
| Cc1cc(=O)c(OCc2ccccc2)c(/C=C/c2cccc(OC(=O)N(C(C)C)C(C)C)c2)o1 [Compound 7d, (E)-3–(2-(3-(benzyloxy)-6-methyl-4-oxo-4H-pyran-2-yl)vinyl)phenyl diisopropylcarbamate] | > 20000 nM | 8530 ± 314 nM | > 10000 nM | 80.01% |  |
| O=C(Oc1cccc(/C=C/c2oc(CO)cc(=O)c2OCc2ccccc2)c1)N1CCCCC1 [Compound 7m, (E)-3–(2-(3-(benzyloxy)-6-(hydroxymethyl)-4-oxo-4H-pyran-2-yl)vinyl)phenyl piperidine-1-carboxylate] | > 20000 nM | 5.22 ± 1.72 nM | 16.5 ± 5.44 nM | 76.97% |  |
| COc1c(/C=C/c2cccc(OC(=O)N3CCCCC3)c2)oc(C)cc1=O [Compound 7p, (E)-3-(2-(3-methoxy-6-methyl-4-oxo-4H-pyran-2-yl)vinyl)phenyl piperidine-1-carboxylate] | > 20000 nM | 4.68 ± 1.39 nM | 9.12 ± 0.57 nM | 71.18% | fold increase in inhibiting eqBuChE ([2]; relative to compound 7g): 3 fold; fold increase in inhibiting huBuChE ([3]; relative to compound 7g): 4 fold; inhibition at 10 µM [4]: 28.8%; Ki [7]: 3.15 nM; Kib (inhibition constant for the enzyme-substrate complex) ([7]; Cornish-Bowden plot): 3.84 nM; type of BuChE inhibition ([7]; Dixon and Cornish-Bowden plots): mix-type; also recorded: mixed-type inhibition; escape latency to the platform ([8]; 1 mg/kg oral once daily): 30.24 s; number of crossing the platform ([8]; 1 mg/kg oral once daily): 3.3 times; escape latency to the platform ([8]; 5 mg/kg oral once daily): 29.12 s; number of crossing the platform ([8]; 5 mg/kg oral once daily): 3.5 times; LD50 at 14 d [9]: > 1000 mg/kg; abnormal behaviours or deaths after administration ([10]; 1000 mg/kg intragastric single dose, 14 d): no abnormal behaviours or deaths; pathological changes in heart, liver, spleen and brain (HE staining) ([10]; 1000 mg/kg, after 14 d, compared with control group): did not observe obvious pathological changes; BBB permeability in the PAMPA-BBB assay (in words) ([6]; PAMPA): high BBB permeability; Papp at 10 h, 25 μg/mL ([6]; PAMPA): 5.7 ± 0.43 ×10⁻⁶ cm/s; CNS (±) [6]: CNS + (CNS +: (high BBB permeability), Pe (×10^−6 cm/s) > 3.95) |
| Cc1cc(=O)c(OCc2ccccc2)c(-c2ccc(-c3cccc(OC(=O)N4CCCCC4)c3)cc2)o1 [Compound 7r, 4′-(3-(Benzyloxy)-6-methyl-4-oxo-4H-pyran-2-yl)-[1,1′-biphenyl]-3-yl piperidine-1-carboxylate] | > 20000 nM | 94.3 ± 20.9 nM | 651 ± 157 nM |  |  |
| Cc1cc(=O)c(OCc2ccccc2)c(/C=C/c2cccc(OC(=O)N3CCCC3)c2)o1 [Compound 7f, (E)-3–(2-(3-(benzyloxy)-6-methyl-4-oxo-4H-pyran-2-yl)vinyl)phenyl pyrrolidine-1-carboxylate] | > 20000 nM | 31.4 ± 5.97 nM | 156 ± 36 nM |  |  |
| CCN(C)C(=O)Oc1cccc([C@H](C)N(C)C)c1 [Rivastigmine, reference compound] |  |  |  |  | escape latency to the platform ([8]; 1 mg/kg oral once daily): 31.15 s; number of crossing the platform ([8]; 1 mg/kg oral once daily): 3.0 times |
| Cc1cc(=O)c(OCc2ccc3ccccc3c2)c(/C=C/c2cccc(OC(=O)N3CCCCC3)c2)o1 [Compound 7n, (E)-3–(2-(6-methyl-3-(naphthalen-2-ylmethoxy)-4-oxo-4H-pyran-2-yl)vinyl)phenyl piperidine-1-carboxylate] | > 20000 nM | 18.9 ± 5.98 nM | 39.4 ± 4.2 nM |  |  |
| Cc1cc(=O)c(OCc2ccccc2)c(-c2ccc3ccc(OC(=O)N4CCCCC4)cc3c2)o1 [Compound 7q, 7–(3-(Benzyloxy)-6-methyl-4-oxo-4H-pyran-2-yl)naphthalen-2-yl piperidine-1-carboxylate] | > 20000 nM | 41.7 ± 11.3 nM | 230 ± 29.9 nM |  |  |
| Cn1c(=O)c2[nH]cnc2n(C)c1=O [Theophylline] |  |  |  |  | Pe(ref.) [5]: 0.12 ± 0.01 ×10^−6 cm/s |
| Cc1cc(=O)c(OCc2ccccc2)c(/C=C/c2cccc(OC(=O)N3CCN(Cc4ccccc4)CC3)c2)o1 [Compound 7j, (E)-3–(2-(3-(benzyloxy)-6-methyl-4-oxo-4H-pyran-2-yl)vinyl)phenyl 4-benzylpiperazine-1-carboxylate] | > 20000 nM | 31.8 ± 6.92 nM | 733 ± 59.8 nM |  |  |
| Cc1cc(=O)c(OCc2ccccc2)c(/C=C/c2cccc(OC(=O)N(C)C)c2)o1 [Compound 7a, (E)-3–(2-(3-(benzyloxy)-6-methyl-4-oxo-4H-pyran-2-yl)vinyl)phenyl dimethylcarbamate] | > 20000 nM | 24.6 ± 6.66 nM | 99.4 ± 20.6 nM | 90.31% |  |
| Cc1cc(=O)c(OCc2ccccc2)c(/C=C/c2cccc(OC(=O)N(c3ccccc3)c3ccccc3)c2)o1 [Compound 7e, (E)-3–(2-(3-(benzyloxy)-6-methyl-4-oxo-4H-pyran-2-yl)vinyl)phenyl diphenylcarbamate] | > 20000 nM | > 10000 nM | > 10000 nM | 106.16% |  |
| CCN(CC)C(=O)Oc1cccc(/C=C/c2oc(C)cc(=O)c2OCc2ccccc2)c1 [Compound 7c, (E)-3–(2-(3-(benzyloxy)-6-methyl-4-oxo-4H-pyran-2-yl)vinyl)phenyl diethylcarbamate] | > 20000 nM | 652 ± 44.5 nM | > 10000 nM |  |  |
| CN1C(C(=O)Nc2ccccn2)=C(O)c2ccccc2S1(=O)=O [Piroxicam] |  |  |  |  | Pe(ref.) [5]: 2.5e-06 cm/s; Papp at 10 h, 25 μg/mL ([6]; PAMPA): 2.16 ± 0.04 ×10⁻⁶ cm/s; CNS (±) [6]: CNS +/- |
| O=C(Oc1cccc(/C=C/c2occc(=O)c2OCc2ccccc2)c1)N1CCCCC1 [Compound 7l, (E)-3–(2-(3-(benzyloxy)-4-oxo-4H-pyran-2-yl)vinyl)phenyl piperidine-1-carboxylate] | > 20000 nM | 8.1 ± 2.75 nM | 6.93 ± 1.57 nM |  |  |
| CCn1cc(C(=O)O)c(=O)c2cc(F)c(N3CCNCC3)cc21 [Norfloxacin] |  |  |  |  | Pe(ref.) [5]: 1e-07 cm/s; Papp at 10 h, 25 μg/mL ([6]; PAMPA): 0.18 ± 0.03 ×10⁻⁶ cm/s; CNS (±) [6]: CNS - (CNS -: (low BBB permeability), Pe (×10^−6 cm/s) < 2.03) |
| Cc1cc(=O)c(OCc2ccccc2)c(/C=C/c2cccc(OC(=O)N3CCC(Cc4ccccc4)CC3)c2)o1 [Compound 7i, (E)-3–(2-(3-(benzyloxy)-6-methyl-4-oxo-4H-pyran-2-yl)vinyl)phenyl 4-benzylpiperidine-1-carboxylate] | > 20000 nM | 75.2 ± 11.9 nM | 374 ± 6.45 nM |  |  |
| C[C@]12CCC(=O)C=C1CC[C@@H]1[C@@H]2[C@@H](O)C[C@@]2(C)[C@H]1CC[C@]2(O)C(=O)CO [hydrocortisone, Hydrocortisone, reference compound] |  |  |  | 70.25% | cell viability compared to the control group [11]: no significant differences |
| Cc1cc(=O)c(OCc2ccccc2)c(/C=C/c2cccc(OC(=O)N3CCCCC3)c2)o1 [Compound 7g, (E)-3–(2-(3-(benzyloxy)-6-methyl-4-oxo-4H-pyran-2-yl)vinyl)phenyl piperidine-1-carboxylate] | > 20000 nM | 15.3 ± 0.75 nM | 38.7 ± 2.08 nM | 90.09% |  |
| Cc1cc(=O)c(OCc2ccc(-c3ccccc3)cc2)c(/C=C/c2cccc(OC(=O)N3CCCCC3)c2)o1 [Compound 7o, (E)-3–(2-(3-([1,1′-biphenyl]-4-ylmethoxy)-6-methyl-4-oxo-4H-pyran-2-yl)vinyl)phenyl piperidine-1-carboxylate] | > 20000 nM | 19.2 ± 1.91 nM | 37.9 ± 5.37 nM |  |  |
| Cc1cc(=O)c(OCc2ccccc2)c(/C=C/c2cccc(OC(=O)N3CCOCC3)c2)o1 [Compound 7h, (E)-3–(2-(3-(benzyloxy)-6-methyl-4-oxo-4H-pyran-2-yl)vinyl)phenyl morpholine-4-carboxylate] | > 20000 nM | 72.6 ± 9.39 nM | > 10000 nM |  |  |
| CCN(C)C(=O)Oc1cccc(/C=C/c2oc(C)cc(=O)c2OCc2ccccc2)c1 [Compound 7b, (E)-3–(2-(3-(benzyloxy)-6-methyl-4-oxo-4H-pyran-2-yl)vinyl)phenyl ethyl(methyl)carbamate] | > 20000 nM | 157 ± 13.3 nM | 631 ± 155 nM |  |  |
